How the values were obtained:
skin = experiment: Applicant's studies of chlorophyllin combined with aminolevulinic acid
Water-solubility = type: physicochemical; conditions: compared with chlorophyll

chlorophyllin
effectiveness of aminolevulinic acid (skin): promoting the effectiveness
protective role against side effects of aminolevulinic acid (erythema) (skin): preventing in particular the appearance of erythema
water-solubility (Water-solubility): good water-solubility

Reference: patent US20100255045A1, “COMPOSITION FOR PHOTODYNAMIC SKIN TREATMENT” (priority 2007, published 2010)
